From patent publication US20100222396A1 (Novartis AG, priority 2009, published 2010)

Experiments:
[1] = molecular target: T1, human orexin 1 receptor (hOx1R) (Homo sapiens, UniProt O43613); test: Calcium accumulation in cells (FLIPR), antagonism of orexin A, hOx1R; type: cell-based; settings: for Kd: cells expressing human orexin 1 receptor, IC50 vs orexin A converted by Cheng and Prusoff correction; for inhibition at 10 µM: measured at a concentration of 10 μM of compound (cells marked ^a)
T1 construct: expressed in transfected cells
T1 sequence (O43613 1-425): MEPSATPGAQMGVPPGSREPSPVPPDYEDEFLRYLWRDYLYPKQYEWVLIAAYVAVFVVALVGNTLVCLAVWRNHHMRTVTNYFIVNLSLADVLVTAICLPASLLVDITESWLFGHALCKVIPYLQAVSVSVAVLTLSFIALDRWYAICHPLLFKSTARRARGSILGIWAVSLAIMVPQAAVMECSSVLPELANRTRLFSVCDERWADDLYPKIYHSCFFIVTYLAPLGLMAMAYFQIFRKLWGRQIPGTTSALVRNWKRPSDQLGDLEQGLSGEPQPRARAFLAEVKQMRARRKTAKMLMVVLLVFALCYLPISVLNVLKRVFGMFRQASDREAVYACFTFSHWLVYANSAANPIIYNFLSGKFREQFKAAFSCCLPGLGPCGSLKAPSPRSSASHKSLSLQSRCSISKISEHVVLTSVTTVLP
Procedure, shortened: (§1)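 Serum-starved receptor-expressing cells were loaded with Fluo-4-AM (2 μM) plus probenecid (0.1 mM) in HEPES buffer, pH 7.4, with 1% BSA, and Ca2+ fluorescence was read on FLIPR. Compounds (10^−9–10^−5 M) were added first, and orexin A was added one hour later to measure antagonism.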

[2] = molecular target: T1, human orexin 1 receptor (hOx1R); test: Radioligand binding assay ([125I]orexin A competition), hOx1R; settings: CHO or HEK cell membranes, 1 h room temperature
Procedure, shortened: (§2)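 Membranes from CHO or HEK cells expressing the human receptor, incubated 1 h at room temperature with […] [125I]orexin A and compound in HEPES pH 7.5 buffer with BSA, MgCl2, CaCl2 and tween.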

[3] = molecular target: T2, human orexin 2 receptor (hOx2R) (Homo sapiens, UniProt O43614); test: Calcium accumulation in cells (FLIPR), antagonism of orexin A, hOx2R; type: cell-based; settings: for Kd: cells expressing human orexin 2 receptor, IC50 vs orexin A converted by Cheng and Prusoff correction
T2 construct: expressed in transfected cells
T2 sequence (O43614 1-444): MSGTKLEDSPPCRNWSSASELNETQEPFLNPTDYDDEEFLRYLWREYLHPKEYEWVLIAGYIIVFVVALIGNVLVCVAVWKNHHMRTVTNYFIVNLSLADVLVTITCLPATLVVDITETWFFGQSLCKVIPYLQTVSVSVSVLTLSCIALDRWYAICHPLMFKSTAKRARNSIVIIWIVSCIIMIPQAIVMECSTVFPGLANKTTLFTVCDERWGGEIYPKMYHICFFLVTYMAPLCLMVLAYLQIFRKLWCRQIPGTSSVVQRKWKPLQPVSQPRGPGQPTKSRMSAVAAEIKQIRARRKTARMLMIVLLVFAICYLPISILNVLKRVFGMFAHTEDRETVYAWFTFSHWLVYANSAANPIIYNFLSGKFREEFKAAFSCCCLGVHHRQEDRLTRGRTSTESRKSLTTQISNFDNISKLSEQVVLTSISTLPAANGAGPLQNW
Procedure, shortened: as §1

[4] = molecular target: T2, human orexin 2 receptor (hOx2R); test: Radioligand binding assay ([125I]orexin A competition), hOx2R; settings: CHO or HEK cell membranes, 1 h room temperature
Procedure, shortened: as §2

SMILES	Kd [1] [nM]	Kd [2] [nM]	Kd [3] [nM]	Kd [4] [nM]	inhibition at 10 µM [1] [%]	inhibition at 10 µM ([3]; measured at a concentration of 10 μM of compound (cells marked ^a)) [%]
CCCN(C(=O)c1cccc2c1OCO2)[C@H](CCNC(=O)c1ccccn1)Cc1ccccc1 [Example 59, Pyridine-2-carboxylic acid {(S)-3-[(benzo[1,3]dioxole-4-carbonyl)-propyl-amino]-4-phenyl-butyl}-amide]	2040	3630	562	3620		
CN(C(=O)c1cc(C(F)(F)F)cc(C(F)(F)F)c1)[C@H](CCNC(=O)c1nc2ccccc2n1C)Cc1ccccc1 [Example 12, 1-Methyl-1H-benzoimidazole-2-carboxylic acid {(S)-3-[(3,5-bis-trifluoromethyl-benzoyl)-methyl-amino]-4-phenyl-butyl}-amide]	437	1070	40	98		
CN(C(=O)c1ccc2c(c1)OCO2)[C@H](CCNC(=O)c1nccn1C)Cc1ccccc1 [Example 78, 1-Methyl-1H-imidazole-2-carboxylic acid {(S)-3-[(benzo[1,3]dioxole-5-carbonyl)-methyl-amino]-4-phenyl-butyl}-amide]	1470	660	28	24		
Cc1nc2sccn2c1C(=O)NCC[C@H](Cc1ccccc1)N(C)C(=O)c1ccc2c(c1)OCO2 [Example 82, 6-Methyl-imidazo[2,1-b]thiazole-5-carboxylic acid {(S)-3-[(benzo[1,3]dioxole-5-carbonyl)-methyl-amino]-4-phenyl-butyl}-amide]	963	163	2	12		
CN(C(=O)c1ccc2c(c1)OCO2)[C@H](CCNC(=O)c1ccccn1)Cc1ccc(F)cc1 [Example 51, Pyridine-2-carboxylic acid [(S)-3-[(benzo[1,3]dioxole-5-carbonyl)-methyl-amino]-4-(4-fluoro-phenyl)-butyl]-amide]		3540	794	1150	16	
CCCOc1cccc(C(=O)N(C)[C@H](CCNC(=O)c2cccn2C)Cc2ccccc2)c1 [Example 126]	2100	2480	56	87		
COc1cccc(C(=O)N(C)[C@H](CCNC(=O)c2ccccn2)Cc2ccccc2)c1 [Example 52, Pyridine-2-carboxylic acid {(S)-3-[(3-methoxy-benzoyl)-methyl-amino]-4-phenyl-butyl}-amide]	466	2420	916	963		
CN(C(=O)c1ccccc1)[C@H](CCNC(=O)c1ccnc2ccccc12)Cc1ccccc1 [Example 2, Quinoline-4-carboxylic acid [(S)-3-(benzoyl-methyl-amino)-4-phenyl-butyl]-amide]		> 10000		4970	4	19
